One data set relates to CT-26 C2 tumor cells. Nature of the data set: CT-26 in vivo tumor reduction. Set-up: species or system BALB/c female mouse. Particulars: CT-26, day 17 from start of dosing, oral QD. The procedure:
Each BALB/c female mouse was inoculated subcutaneously at the right flank with CT-26 C2 tumor cells (0.3×10^6/mouse) in 0.1 mL PBS for tumor development. Treatments for the efficacy study were started on day 10 after tumor inoculation when the average tumor size reached approximately 71 mm^3. Each group consisted of 6 tumor-bearing mice. Vehicle control was 25 mM citrate buffer (pH 2.5). HSND80 was dosed orally QD at 15 mg/Kg for 4 days and 10 mg/Kg afterwards. HSND100 was dosed at 15 mg/Kg. Mice were dosed 5 days on and 2 days off (drug holiday). Tumors were measured every other day (L, W, H) to give tumor volume in mm^3.

In data set [1] the test system is MDA-MB-231 (breast cancer). Nature of the data set: Growth inhibition of MDA-MB-231 (NCI-60 human tumor cell line screen). The class given is cell-based. Conditions: NCI-60 screening.
For the next data set, the target named is p70S6K (Homo sapiens, UniProt P23443). The data set can be described thus: p70S6K inhibition, in vitro studies at Reaction Biology Corporation. The class given is biochemical. Particulars: 25 nM compound, [ATP]=10 uM. The procedure:
The nature of the substituent on the imidazo[1,2-b]pyridazine moiety at position-6 was evaluated in in vitro studies performed at Reaction Biology Corporation (Malvern, PA). The results indicated the specific substituent dramatically affected the inhibition of p70S6K.

The target of another data set is MNK2 (Homo sapiens, UniProt Q9HBH9). The data set can be described thus: MNK2 inhibition, in vitro studies at Reaction Biology Corporation. Format: biochemical. Particulars: 50 nM compound, 10 uM ATP.
MNK2, sequence (Q9HBH9 whole entry): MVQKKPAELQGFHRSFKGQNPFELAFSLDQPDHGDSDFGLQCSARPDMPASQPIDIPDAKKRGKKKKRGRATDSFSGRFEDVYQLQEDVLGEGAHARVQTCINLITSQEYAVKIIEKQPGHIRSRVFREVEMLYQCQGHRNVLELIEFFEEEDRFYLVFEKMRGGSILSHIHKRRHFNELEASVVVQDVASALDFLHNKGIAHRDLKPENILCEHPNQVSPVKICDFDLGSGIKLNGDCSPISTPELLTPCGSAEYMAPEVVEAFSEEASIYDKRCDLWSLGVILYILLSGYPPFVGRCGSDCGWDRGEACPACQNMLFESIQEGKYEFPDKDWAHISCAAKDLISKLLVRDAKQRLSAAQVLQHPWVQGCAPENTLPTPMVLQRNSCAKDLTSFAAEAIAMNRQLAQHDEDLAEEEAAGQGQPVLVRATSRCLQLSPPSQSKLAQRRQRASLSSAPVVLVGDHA
For data set [2], the target named is T1, AXL receptor tyrosine kinase (AXL) (Homo sapiens, UniProt P30530).
T1 construct: purchased Eurofins DiscoverX (KINOMEscan service)
T1 sequence (P30530 26-894): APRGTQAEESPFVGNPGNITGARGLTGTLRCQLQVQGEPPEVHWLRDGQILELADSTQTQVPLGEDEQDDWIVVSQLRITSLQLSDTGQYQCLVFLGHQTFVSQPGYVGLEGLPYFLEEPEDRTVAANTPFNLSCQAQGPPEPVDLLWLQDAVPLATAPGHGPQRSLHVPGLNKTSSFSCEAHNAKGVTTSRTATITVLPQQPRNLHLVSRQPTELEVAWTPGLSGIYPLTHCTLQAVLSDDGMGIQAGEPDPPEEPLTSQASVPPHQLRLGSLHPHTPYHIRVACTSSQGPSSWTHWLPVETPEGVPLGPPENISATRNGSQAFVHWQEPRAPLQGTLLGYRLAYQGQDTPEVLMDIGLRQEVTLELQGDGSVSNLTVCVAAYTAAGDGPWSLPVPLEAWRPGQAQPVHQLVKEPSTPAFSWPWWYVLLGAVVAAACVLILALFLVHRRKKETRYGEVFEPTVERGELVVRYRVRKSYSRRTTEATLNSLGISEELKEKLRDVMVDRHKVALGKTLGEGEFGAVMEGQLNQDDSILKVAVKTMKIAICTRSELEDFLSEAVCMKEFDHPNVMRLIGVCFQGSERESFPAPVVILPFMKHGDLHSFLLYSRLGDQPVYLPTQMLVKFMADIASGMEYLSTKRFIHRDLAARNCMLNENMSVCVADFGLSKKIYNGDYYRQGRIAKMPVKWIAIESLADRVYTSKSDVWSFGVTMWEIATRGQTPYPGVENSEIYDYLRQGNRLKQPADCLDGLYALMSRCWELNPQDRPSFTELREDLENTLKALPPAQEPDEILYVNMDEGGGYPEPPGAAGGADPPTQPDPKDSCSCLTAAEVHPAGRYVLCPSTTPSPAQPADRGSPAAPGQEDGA
Nature of the data set: KINOMEscan competition binding assay (Eurofins DiscoverX), AXL. As to the method: The affinity of several compounds hereof having a substituent on the imidazo[1,2-b]pyridazine moiety at position-6, wherein the substituent comprised one or more ring moieties was evaluated with respect to two TAM kinases: AXL and MERTK. […] The assay uses DNA-tagged kinase, an immobilized ligand, and the test compound. Quantitative polymerase chain reaction (PCR) of the DNT tag was then used to measure the ability of the tested compound to displace the immobilized ligand.

Data set [3] deals with T2, MER Proto-Oncogene tyrosine kinase (MERTK) (Homo sapiens, UniProt Q12866).
T2 construct: purchased Eurofins DiscoverX (KINOMEscan service)
T2 sequence (Q12866 21-999): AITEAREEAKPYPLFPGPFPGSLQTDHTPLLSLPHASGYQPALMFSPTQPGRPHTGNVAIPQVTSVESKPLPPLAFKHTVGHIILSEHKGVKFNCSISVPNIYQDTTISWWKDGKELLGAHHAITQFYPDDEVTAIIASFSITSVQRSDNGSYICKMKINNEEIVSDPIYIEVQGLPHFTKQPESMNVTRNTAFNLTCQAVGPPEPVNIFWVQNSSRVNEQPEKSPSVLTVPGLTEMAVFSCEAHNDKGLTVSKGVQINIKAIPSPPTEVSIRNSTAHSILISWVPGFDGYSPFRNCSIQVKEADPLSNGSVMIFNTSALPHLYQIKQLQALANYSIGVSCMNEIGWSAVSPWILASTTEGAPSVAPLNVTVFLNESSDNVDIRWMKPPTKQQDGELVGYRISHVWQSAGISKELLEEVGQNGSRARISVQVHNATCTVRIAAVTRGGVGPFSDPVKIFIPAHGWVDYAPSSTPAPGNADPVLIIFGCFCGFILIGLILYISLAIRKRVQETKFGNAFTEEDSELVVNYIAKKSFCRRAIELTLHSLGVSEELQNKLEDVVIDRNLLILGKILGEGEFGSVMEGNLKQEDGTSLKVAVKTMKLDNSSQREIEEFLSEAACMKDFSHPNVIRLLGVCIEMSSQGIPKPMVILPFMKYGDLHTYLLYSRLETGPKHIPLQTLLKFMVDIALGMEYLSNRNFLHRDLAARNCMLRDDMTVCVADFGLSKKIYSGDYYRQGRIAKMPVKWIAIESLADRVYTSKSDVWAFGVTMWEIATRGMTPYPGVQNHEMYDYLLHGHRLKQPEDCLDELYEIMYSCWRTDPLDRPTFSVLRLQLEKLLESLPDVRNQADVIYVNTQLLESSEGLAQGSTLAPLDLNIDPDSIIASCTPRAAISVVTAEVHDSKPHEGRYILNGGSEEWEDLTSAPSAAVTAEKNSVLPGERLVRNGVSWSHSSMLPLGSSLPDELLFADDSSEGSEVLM
Nature of the data set: KINOMEscan competition binding assay (Eurofins DiscoverX), MERTK. As to the method:
The affinity of several compounds hereof having a substituent on the imidazo[1,2-b]pyridazine moiety at position-6, wherein the substituent comprised one or more ring moieties was evaluated with respect to two TAM kinases: AXL and MERTK. Perhaps more specifically, the equilibrium dissociation constant between each of compounds HSND141, compound HSND149, HSND150, HSND151, and HSND80 and AXL and MERTK was evaluated at Eurofins DiscoverX using KINOMEscan™, which is a competition binding assay that quantitively measured the ability of each tested compound to displace an immobilized, active-site directed ligand. The assay uses DNA-tagged kinase, an immobilized ligand, and the test compound. Quantitative polymerase chain reaction (PCR) of the DNT tag was then used to measure the ability of the tested compound to displace the immobilized ligand.

The conditions of data set [4]: patients on ponatinib; cited from earlier work.
Setting [5] is: Table 1, DiscoverX Eurofins, read-out: Kd AXL.
Setting [6] is: Table 1, DiscoverX Eurofins, read-out: Kd MERTK.

Like-named read-outs stand apart in the source and are kept apart here.

p70S6K, sequence (P23443 whole entry): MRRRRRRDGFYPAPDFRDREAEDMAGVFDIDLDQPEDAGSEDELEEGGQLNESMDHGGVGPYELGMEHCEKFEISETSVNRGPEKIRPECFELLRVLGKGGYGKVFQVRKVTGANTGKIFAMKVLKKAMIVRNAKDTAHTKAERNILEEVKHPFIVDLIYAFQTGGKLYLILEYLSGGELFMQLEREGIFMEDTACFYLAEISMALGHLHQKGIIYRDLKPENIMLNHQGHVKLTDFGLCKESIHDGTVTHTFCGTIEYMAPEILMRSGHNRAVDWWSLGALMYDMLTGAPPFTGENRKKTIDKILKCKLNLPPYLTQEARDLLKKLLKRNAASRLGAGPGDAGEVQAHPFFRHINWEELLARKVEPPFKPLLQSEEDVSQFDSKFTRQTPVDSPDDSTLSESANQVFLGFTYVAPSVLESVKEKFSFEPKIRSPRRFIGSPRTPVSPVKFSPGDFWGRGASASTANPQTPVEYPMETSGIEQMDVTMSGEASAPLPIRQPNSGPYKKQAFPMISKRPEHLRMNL

`CC1CN(c2ccc3ncc(C#Cc4cncc(C(=O)Nc5ccc(CN6CCN(C)CC6)c(C(F)(F)F)c5)c4)n3n2)C[C@@H](C)O1` (stereo in doubt) [HSND100, 5-((6-((2R,6R)-2,6-Dimethylmorpholino)imidazo[1,2-b]pyridazin-3-yl)ethynyl)-N-(4-((4-methylpiperazin-1-yl)methyl)-3-(trifluoromethyl)phenyl)nicotinamide]: the “tumor reduction compared to vehicle control” value with CT-26 C2 tumor cells was found to be 36%.

In turn, `CN1CCN(Cc2ccc(NC(=O)c3cncc(C#Cc4cnc5ccc(N)nn45)c3)cc2C(F)(F)F)CC1` [HSND37, 5-((6-Aminoimidazo[1,2-b]pyridazin-3-yl)ethynyl)-N-(4-((4-methylpiperazin-1-yl)methyl)-3-(trifluoromethyl)phenyl)nicotinamide] returned a GI50 in data set [1] of 413 nM.

In data set [1], `CN(C)CCNc1ccc2ncc(C#Cc3cncc(C(=O)Nc4ccc(CN5CCN(C)CC5)c(C(F)(F)F)c4)c3)n2n1` [HSND39, 5-((6-((2-(Dimethylamino)ethyl)amino)imidazo[1,2-b]pyridazin-3-yl)ethynyl)-N-(4-((4-methylpiperazin-1-yl)methyl)-3-(trifluoromethyl)phenyl)nicotinamide] showed a GI50 of 571 nM.

Turning to `CN(C)CCN(C)c1ccc2ncc(C#Cc3cncc(C(=O)Nc4ccc(CN5CCN(C)CC5)c(C(F)(F)F)c4)c3)n2n1` [HSND40, 5-((6-((2-(Dimethylamino)ethyl)(methyl)amino)imidazo[1,2-b]pyridazin-3-yl)ethynyl)-N-(4-((4-methylpiperazin-1-yl)methyl)-3-(trifluoromethyl)phenyl)nicotinamide], the concentration for 50% growth inhibition (GI50) in data set [1] was determined as 889 nM.

For the compound `CN1CCN(Cc2ccc(NC(=O)c3cncc(C#Cc4cnc5ccc(N6CCOCC6)nn45)c3)cc2C(F)(F)F)CC1` [HSND41, N-(4-((4-Methylpiperazin-1-yl)methyl)-3-(trifluoromethyl)phenyl)-5-((6-morpholinoimidazo[1,2-b]pyridazin-3-yl)ethynyl)nicotinamide], it took 35 nM to inhibit growth in data set [1] by half (GI50).

For `CN1CCN(Cc2ccc(NC(=O)c3cncc(C#Cc4cnc5ccc(N6CCN(C)CC6)nn45)c3)cc2C(F)(F)F)CC1` [HSND77, 5-((6-(4-Methylpiperazin-1-yl)imidazo[1,2-b]pyridazin-3-yl)ethynyl)-N-(4-((4-methylpiperazin-1-yl)methyl)-3-(trifluoromethyl)phenyl)nicotinamide], the “inhibition of p70S6K” value at p70S6K was determined as 95%. This compound also showed an inhibition at 0.05 µM at MNK2 of 92%.

As for `CN1CCN(Cc2ccc(NC(=O)c3cncc(C#Cc4cnc5ccc(N6CCSCC6)nn45)c3)cc2C(F)(F)F)CC1` [HSND79, N-(4-((4-Methylpiperazin-1-yl)methyl)-3-(trifluoromethyl)phenyl)-5-((6-thiomorpholinoimidazo[1,2-b]pyridazin-3-yl)ethynyl)nicotinamide], at p70S6K, the “inhibition of p70S6K” value came out at 95%. Also, at MNK2, the inhibition at 0.05 µM came to 94%.

As for `CN1CCN(Cc2ccc(NC(=O)c3cncc(C#Cc4cnc5ccc(N6C7CCC6COC7)nn45)c3)cc2C(F)(F)F)CC1` [HSND141, 5-((6-(3-Oxa-8-azabicyclo[3.2.1]octan-8-yl)imidazo[1,2-b]pyridazin-3-yl)ethynyl)-N-(4-((4-methylpiperazin-1-yl)methyl)-3-(trifluoromethyl)phenyl)nicotinamide], the results for the equilibrium dissociation constant (Kd) in data set [2] and in data set [3] were 1.2 nM and 0.22 nM, respectively.

In the case of `CN1CCN(Cc2ccc(NC(=O)c3cncc(C#Cc4cnc5ccc(N6CC7(COC7)C6)nn45)c3)cc2C(F)(F)F)CC1` [HSND149, 5-((6-(2-Oxa-6-azaspiro[3.3]heptan-6-yl)imidazo[1,2-b]pyridazin-3-yl)ethynyl)-N-(4-((4-methylpiperazin-1-yl)methyl)-3-(trifluoromethyl)phenyl)nicotinamide], the figures for the Kd in data set [2] (setting [5]) and in data set [3] (setting [6]) were 3.7 nM and 0.2 nM, respectively.

Take `CN1CCN(Cc2ccc(NC(=O)c3cncc(C#Cc4cnc5ccc(N6C[C@H]7C[C@@H]6CO7)nn45)c3)cc2C(F)(F)F)CC1` [HSND150, 5-((6-((1R,4R)-2-Oxa-5-azabicyclo[2.2.1]heptan-5-yl)imidazo[1,2-b]pyridazin-3-yl)ethynyl)-N-(4-((4-methylpiperazin-1-yl)methyl)-3-(trifluoromethyl)phenyl)nicotinamide]: the Kd is 2.8 nM in data set [2] (setting [5]) and below 0.17 nM in data set [3] (setting [6]).

Take `CN1CCN(Cc2ccc(NC(=O)c3cncc(C#Cc4cnc5ccc(N6C[C@@H]7C[C@H]6CO7)nn45)c3)cc2C(F)(F)F)CC1` [HSND151, 5-((6-((1S,4S)-2-Oxa-5-azabicyclo[2.2.1]heptan-5-yl)imidazo[1,2-b]pyridazin-3-yl)ethynyl)-N-(4-((4-methylpiperazin-1-yl)methyl)-3-(trifluoromethyl)phenyl)nicotinamide]: the Kd in data set [2] (setting [5]) was 3.3 nM; in data set [3] (setting [6]), below 0.17 nM.

Regarding `Cc1ccc(C(=O)Nc2ccc(CN3CCN(C)CC3)c(C(F)(F)F)c2)cc1C#Cc1cnc2cccnn12` [ponatinib, Ponatinib, reference compound], the “inhibition of p70S6K” value against p70S6K is reported as 38%. In data set [4], the “patients developing some form of thrombosis” value is reported as “about 40%”.

What is called GI50 is the concentration giving 50% growth inhibition. Read a high GI50 as lower sensitivity of the cells. A word on the inhibition: it is how much of the control response was suppressed. Low readings indicate a weak effect, high ones a strong effect. What is called Kd is the constant that tells how readily two partners part at equilibrium.
